± gives the standard deviation of the averaged measurements.
What was measured:
LAPATINIB = compound: CS(=O)(=O)CCNCc1ccc(-c2ccc3ncnc(Nc4ccc(OCc5cccc(F)c5)c(Cl)c4)c3c2)o1 [LAPATINIB]; experiment: surviving fraction relative to DMSO-only wells; higher = less growth inhibition; conditions: exposure time: 5 days
Summary of the method: (§1)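 Log-phase tumour cell lines, 250–500 cells per well in 384-well plates, received inhibitors at 0.5, 1, 5, 10, 50, 100, 500 and 1000 nM continuously for five days, starting 24 hours after seeding. Viability was quantified with CellTiter-Glo luminescence and normalised to the median of DMSO-only wells to give surviving fraction. Three screens were run per line, and a line stayed in only with replicate Pearson r >0.7 and median Z' >0.3.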

ABT-737 = compound: CN(C)CC[C@H](CSc1ccccc1)Nc1ccc(S(=O)(=O)NC(=O)c2ccc(N3CCN(Cc4ccccc4-c4ccc(Cl)cc4)CC3)cc2)cc1[N+](=O)[O-] [ABT-737]; experiment: as above; conditions: exposure time: 5 days
Summary of the method: as §1

Row | Test System | surviving fraction (LAPATINIB; 0.5 nM) | surviving fraction (LAPATINIB; 1 nM) | surviving fraction (LAPATINIB; 5 nM) | surviving fraction (LAPATINIB; 10 nM) | surviving fraction (LAPATINIB; 50 nM) | surviving fraction (LAPATINIB; 100 nM) | surviving fraction (LAPATINIB; 500 nM) | surviving fraction (LAPATINIB; 1000 nM) | surviving fraction (ABT-737; 0.5 nM) | surviving fraction (ABT-737; 1 nM) | surviving fraction (ABT-737; 5 nM) | surviving fraction (ABT-737; 10 nM) | surviving fraction (ABT-737; 50 nM) | surviving fraction (ABT-737; 100 nM) | surviving fraction (ABT-737; 500 nM) | surviving fraction (ABT-737; 1000 nM)
1 | MDAMB134 BREAST | 0.967 ± 0.017 | 0.963 ± 0.1 | 0.975 ± 0.028 | 1 ± 0.14 | 1.04 ± 0.19 | 0.966 ± 0.083 | 0.956 ± 0.071 | 0.806 ± 0.062 | 1.1 ± 0.12 | 0.848 ± 0.18 | 0.786 ± 0.071 | 0.831 ± 0.016 | 0.908 ± 0.096 | 0.914 ± 0.063 | 0.764 ± 0.04 | 0.471 ± 0.033
2 | YAMATO SYNOVIAL | 1.22 ± 0.066 | 1.31 ± 0.15 | 1.23 ± 0.12 | 1.24 ± 0.077 | 1.25 ± 0.16 | 1.31 ± 0.022 | 1.21 ± 0.16 | 1.13 ± 0.045 | 1.27 ± 0.17 | 1.32 ± 0.11 | 1.35 ± 0.16 | 1.34 ± 0.043 | 1.33 ± 0.19 | 1.38 ± 0.029 | 1.27 ± 0.026 | 1.27 ± 0.14
3 | C33A CERVIX | 0.988 ± 0.07 | 1.03 ± 0.041 | 1.11 ± 0.036 | 1.02 ± 0.045 | 0.887 ± 0.037 | 0.859 ± 0.017 | 0.62 ± 0.014 | 0.537 ± 0.017 | 0.932 ± 0.1 | 0.973 ± 0.088 | 1.08 ± 0.013 | 1.08 ± 0.12 | 1.02 ± 0.14 | 1.1 ± 0.09 | 0.927 ± 0.11 | 1.04 ± 0.15
4 | MDAMB453 BREAST | 1.06 ± 0.024 | 1.04 ± 0.061 | 1.09 ± 0.099 | 1.11 ± 0.12 | 0.993 ± 0.026 | 1.04 ± 0.018 | 0.868 ± 0.043 | 0.752 ± 0.024 | 1.07 ± 0.046 | 1.08 ± 0.083 | 1.1 ± 0.047 | 1.13 ± 0.067 | 1.09 ± 0.036 | 1.1 ± 0.055 | 1.07 ± 0.057 | 1 ± 0.047
5 | VCAP PROSTATE | 0.835 ± 0.089 | 0.828 ± 0.047 | 0.889 ± 0.21 | 1.15 ± 0.049 | 0.957 ± 0.07 | 0.901 ± 0.1 | 0.839 ± 0.035 | 0.956 ± 0.073 | 1.03 ± 0.065 | 0.971 ± 0.075 | 1.14 ± 0.15 | 1.04 ± 0.047 | 1.17 ± 0.078 | 1.13 ± 0.19 | 1.01 ± 0.1 | 0.94 ± 0.047
6 | HOS BONE | 1.017 ± 0.01 | 1.082 ± 0.01 | 1.059 ± 0.01 | 1.03 ± 0.011 | 1.05 ± 0.023 | 1.05 ± 0.034 | 1.039 ± 0.0051 | 1.04 ± 0.018 | 1.01 ± 0.028 | 1.03 ± 0.013 | 1.03 ± 0.026 | 1.03 ± 0.02 | 1.06 ± 0.016 | 1.084 ± 0.0046 | 1.08 ± 0.046 | 1.03 ± 0.021
7 | VP229 BREAST | 1.23 ± 0.14 | 1.21 ± 0.039 | 1.21 ± 0.15 |  | 1.04 ± 0.11 | 0.92 ± 0.058 | 0.626 ± 0.019 | 0.436 ± 0.087 | 1.1 ± 0.09 | 1.12 ± 0.06 | 1.18 ± 0.11 | 1.12 ± 0.049 | 1.22 ± 0.11 | 1.17 ± 0.11 | 1.17 ± 0.017 | 1.13 ± 0.063
8 | HCT15 LARGE INTESTINE | 1.01 ± 0.082 | 1.12 ± 0.098 | 1.04 ± 0.059 | 1.06 ± 0.076 | 0.988 ± 0.078 | 1.08 ± 0.07 | 1.04 ± 0.032 | 1.05 ± 0.071 | 1.02 ± 0.1 | 1.02 ± 0.14 | 1.02 ± 0.12 | 1.02 ± 0.17 | 1.1 ± 0.073 | 1.08 ± 0.094 | 1.03 ± 0.11 | 1.09 ± 0.029
9 | HOSMNG BONE | 0.92 ± 0.06 | 1.04 ± 0.05 | 0.88 ± 0.081 | 0.827 ± 0.12 | 0.848 ± 0.064 | 0.867 ± 0.11 | 0.89 ± 0.084 | 1.06 ± 0.08 | 0.879 ± 0.057 | 0.942 ± 0.099 | 0.888 ± 0.06 | 0.893 ± 0.073 | 0.928 ± 0.072 | 1 ± 0.075 | 0.921 ± 0.12 | 0.944 ± 0.11
10 | HUO3N1 BONE | 1.05 ± 0.044 | 0.978 ± 0.069 | 1.08 ± 0.038 | 1.084 ± 0.01 | 1.02 ± 0.037 | 1.06 ± 0.043 | 0.876 ± 0.15 | 1 ± 0.065 | 1.03 ± 0.027 | 1.07 ± 0.012 | 1.1 ± 0.041 | 1.1 ± 0.035 | 1.09 ± 0.074 | 1.05 ± 0.039 | 0.994 ± 0.064 | 0.943 ± 0.02
11 | KPD BONE | 0.984 ± 0.055 | 1.08 ± 0.03 | 1.05 ± 0.02 | 1.03 ± 0.049 | 1.09 ± 0.06 | 1.08 ± 0.066 | 0.956 ± 0.08 | 0.951 ± 0.094 | 1.06 ± 0.038 | 1.02 ± 0.049 | 1.11 ± 0.03 | 1.13 ± 0.069 | 1.07 ± 0.017 | 1.12 ± 0.21 | 0.839 ± 0.023 | 0.691 ± 0.042
